Source: paper PMC2645951 (Bioconjugate chemistry, 2008)
Read-outs that look alike come from different tables or passages of the source. Where a SMILES comes first, the peptide text is derived from it. The star is where a group is joined. X1 = COc1cc2c3cc1OCCOc1cc4c(cc1OC)Cc1cc5c(OC)cc1Cc1cc(c(OCc6cn(CCOCCOCCOCCOCCOCCOCCOCCOCCNC(=O)COCC(=O)*)nn6)cc1C4)OCCOc1cc(c(cc1OC)Cc1cc(c(OC)cc1C3)OCCO5)C2

How the values were obtained:
HEK cells = details: over a similar range of concentrations; cited from earlier work
Water solubility = type: physicochemical
[1] = background statement of the introduction, no reference given; cited from earlier work

## c12c3c4c5c1c1c6c7c2c2c8c3c3c9c4c4c%10c5c5c1c1c6c6c%11c7c2c2c7c8c3c3c8c9c4c4c9c%10c5c5c1c1c6c6c%11c2c2c7c3c3c8c4c4c9c5c1c1c6c2c3c41 [fullerene C60]
HEK cells
  decrease in viability of HEK cells: 10-50%

## COc1cc2c3cc1OCCOc1cc4c(cc1OC)Cc1cc5c(OC)cc1Cc1cc(c(OCc6cn(CCOCCOCCOCCOCCOCCOCCOCCOCCNC(=O)COCC(=O)N[C@@H](CS)C(=O)N[C@@H](CCCNC(=N)N)C(=O)NCC(=O)N[C@@H](CC(=O)O)C(=O)N[C@@H](CCCNC(=N)N)C(=O)NCC(=O)N[C@@H](CC(=O)O)C(=O)N[C@@H](CCCNC(=N)N)C(=O)NCC(=O)N[C@@H](CC(=O)O)C(=O)N[C@@H](CCCNC(=N)N)C(=O)NCC(=O)N[C@@H](CC(=O)O)C(=O)O)nn6)cc1C4)OCCOc1cc(c(cc1OC)Cc1cc(c(OC)cc1C3)OCCO5)C2 [III] (X1-CRGDRGDRGDRGD-OH; C-terminus assumed)
Water solubility
  water solubility (in words): limited solubility

## COc1cc2c3cc1OCCOc1cc4c(cc1OC)Cc1cc5c(OC)cc1Cc1cc(c(OC)cc1C4)OCCOc1cc(c(cc1OC)C3)Cc1cc(OC)c(cc1C2)OCCO5 [Cryptophane-A]
[1]
  water solubility (in words): poor (low micromolar)
